The text below walks through data of US20150111771A1, “Method for Identifying Agents Capable of Inducing Respiratory Sensitization and Array and Analytical Kits for Use in the Method” (SENZAGEN AB, priority 2012, published 2015).

Read-outs that look alike come from different tables or passages of the source.

The test system of data set [1] is respiratory sensitization. The settings on record: cited from earlier work.
Data set [2] concerns MUTZ-3 cells. Put plainly: GARD transcriptional profiling of stimulated MUTZ-3 with GARD Respiratory Prediction Signature (PCA / SVM classification). The settings on record: for Transcriptional profile in PCA based on GRPS, by mechanistic subdomain: 24 h stimulation, 302 GRPS transcripts (FIG. 5B, 5C). The procedure:
Cultures were maintained at 200.000 cells/ml during expansion, with a media change every 3-4 days. No differentiating steps were performed and instead, the proliferating progenitor MUTZ-3 was used for stimulations. Prior to each experiment, the cells were immunophenotyped using flow cytometry as a quality control. Cells were seeded in 6-well plates at 200.000 cells/ml. Stock solutions of each compound were prepared in either DMSO or distilled water, and were subsequently diluted so the in-well concentrations corresponded to the GARD input concentration, and in-well concentrations of DMSO were 0.1%. Cells were incubated for 24 h at 37° C. and 5% CO2. Thereafter, cells were harvested and analyzed by flow cytometry. In parallel, harvested cells were lysed in TRIzol reagent (Invitrogen) and stored at −20° C. until RNA extraction. Stimulations with chemicals were performed in three individual experiments, so that triplicates samples were obtained.
In short, a phenotypic control of MUTZ-3 was performed prior to chemical stimulation. Stimulated cells were harvested and RNA was isolated. A control of the maturity state of the cells was performed by flow cytometric analysis of CD86. Preparation of cDNA and hybridization, washing and scanning of the Human Gene 1.0 ST Arrays (Affymetrix, Santa Clara, Calif., USA) was performed, according to standardized protocols provided by the manufacturer (Affymetrix).
In short, microarray data were normalized and quality checked with the RMA algorithm, using Affymetrix Expression Console (Affymetrix). […] The biological relevance of the GRPS was explored using Ingenuity Pathways Analysis (IPA) (Ingenuity Systems, Inc. Mountain View, USA), by performing a ‘Core Analysis’. […] Biological relevance was established by exploring the Canonical Pathways associated with input molecules.
The data set was divided into a training set and a test set, consisting of 70% and 30%, of the chemical compounds, respectively. The division was performed randomly, while maintaining the proportions of sensitizers and non-sensitizers in each subset at the same ratio as in the complete data set. A test biomarker signature was identified in the training set, using ANOVA filtering and backward elimination, as described above.
In addition, the test set contained nine samples of DMSO and unstimulated controls respectively. […] Any samples included in this analysis are inappropriate to include in a test set due to the risk of over fitting.

Data set [3] in a line: Max solubility of reference chemicals in cell medium. The settings on record: given for non-toxic compounds insoluble at 500 μM.
The test system of data set [4] is MUTZ-3 cells. Description: Cytotoxicity by propidium iodide staining, relative viability of stimulated cells (Rv90). It is filed as cell-based, human. The settings on record: concentration yielding 90% relative viability. The procedure:
All chemicals were from Sigma-Aldrich, St. Louis, Mo., USA. Compounds were dissolved in either dimethyl sulfoxide (DMSO) or distilled water.

Data set [5] concerns CD86 expression of MUTZ-3 cells. Description: CD86 expression of MUTZ-3 cells following chemical stimulation (flow cytometry). The settings on record: 24 h at GARD input concentration; student's t-test vs corresponding vehicle, p<0.05, n=3. It is filed as cell-based, human. The procedure:
FIG. 4: CD86 expression of MUTZ-3 cells following chemical stimulations. Data shown is an average of (chemical stimulations, n=3, DMSO and unstimulated cells (n=6), with error bars showing standard deviation. Statistical significance was determined by student's t-test, comparing each stimulation with its corresponding vehicle, with p<0.05 indicated by *.
Br J Haematol 2007, 138(3):281-290). […] Thereafter, cells were harvested and analyzed by flow cytometry.
All cell surface staining and washing steps were performed in PBS containing 1% BSA (w/v). Cells were incubated with specific mouse mAbs for 15 min at 4° C. The following mAbs were used for flow cytometry: FITC-conjugated CD1a (DakoCytomation, Glostrup, Denmark), CD34, CD86, and HLA-DR (BD Biosciences), PE-conjugated CD14 (DakoCytomation), CD54 and CD80 (BD Biosciences). Mouse IgG1, conjugated to FITC or PE were used as isotype controls (BD Biosciences) and PI was used to assess cell viability. […]
Prior to chemical challenge, the cells were quality controlled by measuring the cellular expression of common myeloid and dendritic cell markers using flow cytometry. […] Following chemical stimulation, the general maturity state of the cells was controlled again, as determined by the expression of the co-stimulatory marker CD86, with results presented in FIG. 4. […]
A general note: Flow cytometry measures light scatter and fluorescence of single cells or particles in a stream.

Setting [6] is: clinical observations in humans.
[7] abbreviates: external test set, biological triplicates, mapped into PCA space of train data (FIG. 6A).

With `CCCCO` [1-Butanol], the “Classification of reference chemical as respiratory sensitizer or non-sensitizer” value in data set [1] is recorded as “non-sensitizers”.

`[Cl][Pt-2]([Cl])([Cl])([Cl])([Cl])[Cl].[NH4+].[NH4+]` [Ammonium hexachloroplatinate]: in the data set with MUTZ-3 cells [2], the “Transcriptional profile in PCA based on GRPS, by mechanistic subdomain” value (“Transcriptional profile in PCA based” for short) is listed as “most extreme transcriptional changes”. For the same molecule, the “Classification of reference chemical as respiratory sensitizer or non-sensitizer” value in data set [1] (setting [6]) is “respiratory sensitizers”. Moreover, in data set [3], the Max solubility came out at 35 µM.

Consider `N.N.O=S(=O)(O)OOS(=O)(=O)O` [Ammonium persulfate], for which the “Transcriptional profile in PCA based” value in the data set on MUTZ-3 cells [2] is on record as “most extreme transcriptional changes”. For the same molecule, the “Classification of reference chemical as respiratory sensitizer or non-sensitizer” value in data set [1] was “respiratory sensitizers”.

For the molecule `Clc1ccccc1` [Chlorobenzene], the “Position of external test set samples in PCA plot based on the GRPS” value (“Position of external test set samples” for short) in the data set on MUTZ-3 cells [2] (setting [7]) is “correctly grouped together with non-sensitizers”. Moreover, the “Classification of reference chemical as respiratory sensitizer or non-sensitizer” value in data set [1] is “non-sensitizers”. Further, the Max solubility in data set [3] stood at 98 µM.

`O=CCCCC=O` [Glutaraldehyde] showed a Rv90 with MUTZ-3 cells [4] of 10 µM. The “CD86 expression following chemical stimulation” value in data set [5] was “statistically significant upregulation of CD86”. Moreover, the “Transcriptional profile in PCA based” value in the data set with MUTZ-3 cells [2] is “groups closely with both acid anhydrides and diisocyanates”. Besides, in data set [1] (setting [6]), the “Classification of reference chemical as respiratory sensitizer or non-sensitizer” value is “respiratory sensitizers”.

As for `O=C=NCCCCCCN=C=O` [Hexamethylen diisocyanate], the “CD86 expression following chemical stimulation” value in data set [5] was “statistically significant upregulation of CD86”. Besides, the “Classification of reference chemical as respiratory sensitizer or non-sensitizer” value in data set [1] (setting [6]) is “respiratory sensitizers”. This molecule also came in with a Max solubility in data set [3] of 100 µM.

As for `CC(C)O` [Isopropanol], in data set [1] (setting [6]), the “Classification of reference chemical as respiratory sensitizer or non-sensitizer” value is listed as “non-sensitizers”.

Consider `O=C1C=CC(=O)O1` [Maleic Anhydride], for which the “Classification of reference chemical as respiratory sensitizer or non-sensitizer” value in data set [1] is recorded as “respiratory sensitizers”.

For `COC(=O)c1ccccc1O` [Methyl salicylate], the “Classification of reference chemical as respiratory sensitizer or non-sensitizer” value in data set [1] (setting [6]) is “non-sensitizers”.

In the case of `O=C=Nc1ccc(Cc2ccc(N=C=O)cc2)cc1` [Methylene diphenol diisocyanate], the “Classification of reference chemical as respiratory sensitizer or non-sensitizer” value in data set [1] (setting [6]) is “respiratory sensitizers”. The molecule further returned a Max solubility in data set [3] of 50 µM.

Regarding `O=C1OC(=O)c2ccccc21` [Phtalic Anhydride], the “Classification of reference chemical as respiratory sensitizer or non-sensitizer” value in data set [1] (setting [6]) was “respiratory sensitizers”. The same molecule returned a Max solubility in data set [3] of 200 µM.

As for `CC(O)CO` (centres unmarked) [Propylene glycol], the “Classification of reference chemical as respiratory sensitizer or non-sensitizer” value in data set [1] (setting [6]) is “non-sensitizers”.

`O=C(O)c1ccc2c(c1)C(=O)OC2=O` [Trimellitic anhydride]: the “Classification of reference chemical as respiratory sensitizer or non-sensitizer” value in data set [1] (setting [6]) is “respiratory sensitizers”. The molecule also registered a Max solubility in data set [3] of 150 µM.

For `CCCCCCCC/C=C\CCCCCCCC(=O)OCCOCC(OCCO)C1OCC(OCCO)C1OCCO` (centres unmarked) [Tween 80, polyoxyethylene (20) sorbitan monooleate], the “Classification of reference chemical as respiratory sensitizer or non-sensitizer” value in data set [1] (setting [6]) is “non-sensitizers”.

As to `O=S(=O)([O-])[O-].[Zn+2]` [Zinc sulphate], the “Classification of reference chemical as respiratory sensitizer or non-sensitizer” value in data set [1] (setting [6]) was “non-sensitizers”.

With `O=Cc1ccccc1` [benzaldehyde], in the data set on MUTZ-3 cells [2] (setting [7]), the “Position of external test set samples” value was “correctly grouped together with non-sensitizers”.

For `CCOC(=O)c1ccccc1C(=O)OCC` [diethyl phtalate], in the data set with MUTZ-3 cells [2] (setting [7]), the “Position of external test set samples” value is “correctly grouped together with non-sensitizers”.

As for `OCC(O)CO` [glycerol], the “Position of external test set samples” value with MUTZ-3 cells [2] is “correctly grouped together with non-sensitizers”.

`CCCCCCCC(=O)O` [octanoic acid]: the “Position of external test set samples” value in the data set on MUTZ-3 cells [2] is reported as “correctly grouped together with non-sensitizers”.

For `Oc1ccccc1` [phenol], in the data set with MUTZ-3 cells [2] (setting [7]), the “Position of external test set samples” value is “correctly grouped together with non-sensitizers”.

Consider `O=C(O)c1ccccc1O` [salicylic acid], for which the “Position of external test set samples” value in the data set on MUTZ-3 cells [2] is “correctly grouped together with non-sensitizers”.

For `CCCCCCCCCCCCOS(=O)(=O)[O-].[Na+]` [sodium dodecyl sulphate], the “Position of external test set samples” value in the data set with MUTZ-3 cells [2] (setting [7]) is “correctly grouped together with non-sensitizers”.
